Measurements reported in patent US20240058363A1 (Emyria, priority 2020, published 2024).

What was measured:
symptoms of depression = experiment: DASS-21 depression score in patients treated with CBD only (clinical data registry); format: in vivo, human; settings: for DASS-21 Depression Score, Post 1-month follow-up Mean (Std. dev): mean days of treatment 47 (+/−23)
Text: (§1) Detailed demographic information and validated standardised questionnaires were collected as part of routine care. Written informed consent to treatment was obtained from all patients, as well as additional consent to participate in Emyria's clinical data registry, data from participating patients were anonymised, aggregated, and analysed to establish clinical efficacy.
(§2) Clinically validated tools were used to monitor patients for management of symptoms, quality of life, physical/emotional functioning, and concomitant medication usage. Patients were asked about their cannabis history and initially pre-screened for any illicit cannabis use before commencing on medicinal cannabis treatment using the Cannabis Use Disorder Identification Test (CUDIT), a urine screen was performed to confirm negative result for cannabis in their urine before they commence treatment. After they commenced on medicinal cannabis treatment they were initially treated with low doses and monitored for safety and efficacy of treatment before dose escalation is considered.
(§3) Patients are excluded from treatment with medicinal cannabis if they: were pregnant or breast-feeding; have untreated heart disease, heart failure or arrhythmia; a history of severe psychiatric disorders; active suicidal ideation; a history of dependence on cannabis; a history of dependence or abuse of psychoactive substances; detectable urinary THC before commencement of medicinal cannabis.
(§4) A potentially eligible individual who met any of the following criteria will be excluded from participation if the following criteria is met: • 1. Clinically recorded cannabis drug addiction, or cannabis use disorder including individuals with scores 8 or more on the Cannabis Use Disorder Identification Test (CUDIT). • 2. Untreated cardiovascular disease, arrhythmias (other than well controlled atrial fibrillation), or severe heart failure. • 3. History of suicide attempts or suicidal ideation. • 4. History of psychotic episode, schizophrenia or other psychotic disorders.
(§5) Patients were assessed monthly by the clinical team (doctor and nurse) and a visit schedule protocol was followed for each patient. A full medical history was conducted at the initial visit, including a detailed history of the clinical indication (including duration symptoms), comorbidities mental and cardiac health conditions, previous procedures, medications and therapies tried. Patients were reviewed as per the Schedule of Assessments (FIG. 2). Cannabinoid dose and Adverse events were also recorded at each visit after treatment began and categorised as mild (no product change indicated), moderate (product change indicated), severe (product cessation indicated) or serious (life-threatening/medical emergency).
(§6) The doctors treating patients prescribed orally-based medicinal cannabis standardised products as per approval under the Therapeutic Goods Administration (TGA) through the Special Access Scheme (SAS) Category B and Authorised Prescriber (AP) scheme. The prescribing doctor will decide which product type including THC/CBD ratio and CBD only, based on TGA guidance documents (ie for pain THC/CBD type is generally prescribed) [see https://www.tga.gov.au/medicinal-cannabis-guidance-documents], but also will factor in patient's circumstances such as driving (then CBD only prescribed).
(§7) Treatment dosing by the prescribing doctor was in accordance with Emyria (Emerald Clinics) experience, well-tolerated with minimal side effects. Doctors reviewed patients after the 14 day (2 week), see the Schedule of Assessments (FIG. 2). Following the 2-week dosing review where a doctor may increase/decrease the dosage or change product type, patients were then seen regularly (generally monthly) as per the Schedule of Assessments (FIG. 2). Patients taking CBD only products were prescribed either oil or capsules. […]

symptoms of stress = experiment: DASS-21 stress score in patients treated with CBD only (clinical data registry); format: in vivo, human; settings: for DASS-21 Stress Score, Post 1-month follow-up Mean (Std. dev): mean days of treatment 47 (+/−23)
Text: as §1, §2, §3, §4, §5, §6, §7

[1] = average treatment window of slightly under 13 days
[2] = dosage amounts between 50-200 mg per day
[3] = mean treatment horizon of 22 days
[4] = mean treatment period of 7 days
[5] = patients with subthreshold and clinically significant scores at baseline

In the case of C=C(C)C1CCC(C)=CC1c1c(O)cc(CCCCC)cc1O (stereo not drawn) [cannabidiol, 2-[3-methyl-6-(1-methylethenyl)-2-cyclohexen-1-yl]-5-pentyl-1,3-benzenediol], the “DASS-21 Depression Score, Post 1-month follow-up Mean (Std. dev)” value (from here on “DASS-21 Depression Score … (Std. dev)”) (symptoms of depression; All (n = 146), initial mean 17.4 (9.6), p 0.000) is reported as 12.8 (10.0), the “DASS-21 Depression Score … (Std. dev)” value (symptoms of depression; Mod to extreme (n = 92), initial mean 22.7 (8.0), p 0.000) is reported as 16.4 (10.6) and the “Decrease in depression score” value (symptoms of depression; [1]) is reported as −11.2. The “DASS-21 Depression Score … (Std. dev)” value (symptoms of depression; baseline category Extremely Severe 28+ (n = 28), initial mean 32.9 (5.2), p 0.000) was 21.4 (11.6), the “DASS-21 Depression Score … (Std. dev)” value (symptoms of depression; baseline category Mild 10-13 (n = 29), initial mean 10.9 (1.0), p 0.000) was 7.1 (4.6) and the “DASS-21 Depression Score … (Std. dev)” value (symptoms of depression; baseline category Moderate 14-20 (n = 49), initial mean 16.4 (2.2), p 0.002) was 12.8 (8.1). For the same compound, the “DASS-21 Depression Score … (Std. dev)” value (symptoms of depression; baseline category Normal 0-9 (n = 25), initial mean 5.5 (2.3), p 0.543) was 6.2 (4.8), the “DASS-21 Depression Score … (Std. dev)” value (symptoms of depression; baseline category Severe 21-27 (n = 15), initial mean 24.1 (1.6), p 0.089) was 18.8 (11.7) and the “Change in depression score from initial visit to first follow-up versus dosage (FIG. 8)” value (symptoms of depression; [2]) was “correlated with a higher value of change indicating less symptoms of anxiety, stress and/or depression”. For the same compound, the “Fall in depression score” value (symptoms of depression; [3]) was −3.9, the “Decline in depression score” value (symptoms of depression; [4]) was −17.5 and the “Mean DASS-21 depression score over the first six months (FIG. 15)” value (symptoms of depression; [5]) was “significant reduction over the 6-month period”. For the same compound, the “DASS-21 Stress Score, Post 1-month follow-up Mean (Std. dev)” value (“DASS-21 Stress Score … (Std. dev)” below) (symptoms of stress; All (n = 146), initial mean 21.6 (9.5), p 0.000) was 16.2 (9.5), the “DASS-21 Stress Score … (Std. dev)” value (symptoms of stress; Mod to extreme (n = 79), initial mean 28.8 (6.2), p 0.000) was 20.5 (9.4) and the “Decrease in stress score” value (symptoms of stress; [1]) was −9.0. For the same compound, the “DASS-21 Stress Score … (Std. dev)” value (symptoms of stress; baseline category Extremely Severe 34+ (n = 18), initial mean 38.2 (2.4), p 0.000) was 21.7 (12.2), the “DASS-21 Stress Score … (Std. dev)” value (symptoms of stress; baseline category Mild 15-18 (n = 27), initial mean 16.9 (1.0), p 0.038) was 14.1 (6.5) and the “DASS-21 Stress Score … (Std. dev)” value (symptoms of stress; baseline category Moderate 19-25 (n = 27), initial mean 22.4 (1.8), p 0.002) was 17.2 (7.7). The “DASS-21 Stress Score … (Std. dev)” value (symptoms of stress; baseline category Normal 0-14 (n = 40), initial mean 10.6 (3.1), p 0.100) was 9.0 (6.0), the “DASS-21 Stress Score … (Std. dev)” value (symptoms of stress; baseline category Severe 26-33 (n = 34), initial mean 28.9 (1.9), p 0.000) was 22.6 (8.4) and the “Change in stress score from initial visit to first follow-up versus dosage (FIG. 7)” value (symptoms of stress; [2]) was “correlated with a higher value of change indicating less symptoms of anxiety, stress and/or depression”. For the same compound, the “Fall in stress score” value (symptoms of stress; [3]) was −5.8, the “Decline in stress score” value (symptoms of stress; [4]) was −16.0 and the “Mean DASS-21 stress score over the first six months (FIG. 16)” value (symptoms of stress; [5]) was “significant reduction over the 6-month period”.
